The source of these data is article PMC2637266, “Quantification of gamma-secretase modulation differentiates inhibitor compound selectivity between two substrates Notch and amyloid precursor protein” (Molecular Brain, 2008).

One assay has as its system zebrafish embryos. Nature of the assay: Zebrafish embryo treatment, tail curvature phenotype. Conditions: 50 μM; for embryo morphology, tail curvature: 24 hpf to 48 hpf, 28°C; for embryo morphology, tail curvature at 4 dpf: kept for four days. It counts as in vivo. As to the method: Measurements of in vitro γ-secretase activity and cell-based Aβ/NICD generation have shown different inhibition potencies. To examine the inhibitory effect in vivo, zebrafish embryos were treated with DAPT or cpd E. Because different γ-secretase inhibitors may impact various metabolic pathways in zebrafish embryos, especially during development, the phenotypes of zebrafish embryos treated with high concentrations of DAPT and cpd E were compared. The major phenotype we examined was curved tail caused by defective somitogenesis.
Figure 4 Treatment of zebrafish embryos with DAPT causes curved tails. A. A stock of DAPT or cpd E in DMSO was diluted in embryo medium, and increasing concentrations of DAPT or cpd E were applied to de-chorionated zebrafish embryos incubated at 28°C from 24 hpf to 48 hpf. Control embryos were mock-treated with embryo medium containing the same concentration of DMSO. […] B. DAPT- or cpd E-treated embryos were kept until 4 dpf, and images were acquired at 40 × magnification.
Zebrafish embryos were raised and staged according to Kimmel, et al.. Compounds were dissolved in egg water at various final concentrations, and 0.5% DMSO was used as a negative control. Prior to the treatment at 24 hour post fertilization, embryos were de-chorionated manually. Embryos were placed in a 24-well plate (5–6 embryos/well) and treated with the compound containing egg water. Embryos were incubated at 28°C, and photographic images were taken at 2 days and 4 days post fertilization (dpf).
Compound-treated embryos were observed under an OLYMPUS SZX12 microscope. For examination, embryos were removed from the compound containing medium and placed into 0.4% tricane (3-amino benzoic acidethylester, Sigma, St. Louis, MO) solution. Upon anesthetizing, embryos were placed in 3% methylcellulose for positioning and images were recorded with OLYMPUS Q-COLOR3 camera. Images were taken at the 40× magnification for embryos at 2 and 4 dpf.

Assay [1] addresses T1, γ-secretase cleavage of APP C100-Flag (Homo sapiens, UniProt P49768).
T1 construct: substrate made in E. coli
Kind of assay: In vitro γ-secretase activity assay, Aβ generated from C100-Flag, ELISA. Conditions: for γ-secretase cleavage of APP in vitro at low concentrations: 0.1 nM to 10 nM; for IC50: C100-Flag, 37°C, 4 hr; for Aβ production in vitro, dose response: C100Flag, increasing concentrations. It is filed as biochemical. As to the method: To characterize the direct effect of two γ-secretase inhibitors cpd E and DAPT on APP/Notch cleavage, a conventional in vitro γ-secretase assay to quantify their inhibitory potency was used. The incubation of γ-secretase complex with purified substrates at 37°C for 4 hr was followed by Western Blot (WB) to determine the quantity of newly generated NICD. A newly generated band that corresponds to the predicted size of the NICD-Flag was detected (Fig. 1A and 1B).
Figure 1 Generation of NICD and Aβ from purified APP and Notch substrate C100 and N100 in an in vitro γ-secretase activity assay. The E. coli generated APP- and Notch-based, 100-residue γ-secretase substrates C100-Flag and N100-Flag were mixed with the membrane vesicles solubilized in CHAPSO after DMSO or compounds were added. The mixture was incubated at 37°C for 4 hours. A. A dose-dependent inhibition of NICD generation by DAPT. Generation of NICD was detected by Western blot (WB) with antibody 1744 specifically recognizing N-terminus of NICD. B. Generation of NICD was inhibited in the presence of 100 nM of cpd E. C. Levels of NICD determined by WB were quantified by densitometry (dotted line). Levels of Aβ generated from the γ-secretase cleavage of C100 in the presence of DAPT were determined by ELISA (solid line). […] D. NICD (dotted line) and Aβ (solid line) generation in the presence of cpd E were compared.
The same preparation of γ-secretase complex was mixed with C100Flag followed by ELISA to quantify the levels of newly generated Aβ.
The E. coli generated APP- and Notch-based, 100-residue γ-secretase substrates C100-Flag and N100-Flag were purified as previously described. C100-Flag substrate contains an initiating methionine, the 99 C-terminal residues of APP that start at the […], and a Flag tag. N100-Flag substrate contains a similar initiating methionine, 99 amino acids that start at the TACE cleavage site, and a Flag tag. The membrane vesicles were solubilized in 1% CHAPSO-HEPES and diluted in a final concentration of 0.2% CHAPSO-HEPES. Phosphatidylethanolamine (PE) and phosphatidylcholine (PC) were added to the final concentration of 0.02% PE and 0.08% PC. After adding DMSO or test compounds to the solubilized γ-secretase complex, substrate C100-Flag or N100-Flag was added to the mixture, then followed by incubation at 37°C for 4 hours. Two compounds have been used in this study, compound E (cpd E), {(S,S)-2-[2-(3,5-Difluorophenyl)-acetylamino]-N-(1-methyl-2-oxo-5-phenyl-2,3-dihydro-1H-benzo [e] [1,4] diazepin-3-yl)-propionamide} [57] and DAPT {N-[N-(3,5-Difluorophenacetyl-L-alanyl)]-S-phenylglycine t-Butyl Ester} [79]. Cpd E was provided by Dr. Michael Wolfe.
Sandwich ELISAs for Aβ were performed as described. The capture antibodies, 2G3 (to Aβ residues 33–40) and 4G8 (to Aβ residues 17–24), were used for Aβ40 and Aβ total species, respectively. The detecting antibodies were biotinylated 82E1 (to Aβ residues 1–16) for Aβ1–40/total or biotinylated 266 for Aβx-40 species. The use of mid-region and C-terminal capturing antibodies and N-terminal detecting antibody for chimeric "Notch-Aβ-like" peptide (Nβ*) has been documented. The combination of several capture/detecting antibodies are use to measure Aβ and Nβ* derived from different precursors. The capture antibody 2G3 and detecting antibody 82E1 were used for measuring Nβ* from APP-α-Notch expressing cells. Since the APP-α-NOTCH is the fusion protein with its juxtamembrane portion of the APP ectodomain (the α-secretase cleavage region) replaced by the corresponding sequence in Notch, the epitopes in APP sequence could still be recognized by 2G3 (C-terminus) and 82E1 (N-terminus). The capture antibody 4G8 and detecting antibody 82E1 were used for measuring Nβ* from APP-m-Notch expressing cells. […]
Background: ELISA stands for enzyme-linked immunosorbent assay.

Entries after “also recorded” stand apart in the source; their conditions may differ. Where two headings read alike, the source gives them in different places.

T1 sequence (Q96BI3 whole entry, other chains not shown): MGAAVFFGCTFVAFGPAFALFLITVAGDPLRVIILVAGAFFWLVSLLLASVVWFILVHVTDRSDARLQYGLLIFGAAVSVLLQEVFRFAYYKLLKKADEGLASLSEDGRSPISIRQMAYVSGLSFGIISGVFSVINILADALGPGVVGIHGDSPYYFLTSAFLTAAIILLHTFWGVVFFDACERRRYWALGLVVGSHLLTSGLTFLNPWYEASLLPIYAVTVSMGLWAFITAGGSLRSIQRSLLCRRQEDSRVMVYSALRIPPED
T1 sequence (Q92542 34-709, other chains not shown, further chain): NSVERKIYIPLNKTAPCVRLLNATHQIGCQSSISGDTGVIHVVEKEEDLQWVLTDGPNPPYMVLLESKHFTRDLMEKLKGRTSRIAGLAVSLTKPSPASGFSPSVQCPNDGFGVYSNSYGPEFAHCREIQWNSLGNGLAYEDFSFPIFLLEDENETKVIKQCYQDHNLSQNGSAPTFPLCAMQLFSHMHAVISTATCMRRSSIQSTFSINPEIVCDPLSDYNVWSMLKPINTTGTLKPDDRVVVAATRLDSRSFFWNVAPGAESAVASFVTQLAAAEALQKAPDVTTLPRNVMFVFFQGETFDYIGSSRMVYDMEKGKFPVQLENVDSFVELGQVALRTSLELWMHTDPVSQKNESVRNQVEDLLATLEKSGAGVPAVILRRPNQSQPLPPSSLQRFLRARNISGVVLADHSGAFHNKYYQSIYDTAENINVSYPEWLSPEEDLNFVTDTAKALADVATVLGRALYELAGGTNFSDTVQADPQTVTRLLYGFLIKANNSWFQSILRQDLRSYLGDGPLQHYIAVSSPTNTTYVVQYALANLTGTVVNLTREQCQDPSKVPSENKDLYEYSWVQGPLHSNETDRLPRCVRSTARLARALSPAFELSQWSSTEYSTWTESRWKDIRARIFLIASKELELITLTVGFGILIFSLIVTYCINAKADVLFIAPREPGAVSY
T1 sequence (Q9NZ42 whole entry, other chains not shown, further chain): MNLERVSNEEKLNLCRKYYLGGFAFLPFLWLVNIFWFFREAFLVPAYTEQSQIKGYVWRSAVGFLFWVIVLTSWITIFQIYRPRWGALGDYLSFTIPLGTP

Turning to `C[C@H](NC(=O)Cc1cc(F)cc(F)c1)C(=O)N[C@H](C(=O)OC(C)(C)C)c1ccccc1` [DAPT, N-[N-(3,5-Difluorophenacetyl-L-alanyl)]-S-phenylglycine t-Butyl Ester], in the assay with zebrafish embryos, the “embryo morphology, tail curvature” value is “much shorter and curved tail; also recorded: caused curved trunk and tails; also recorded: curvature of zebrafish tail was found”; the “embryo morphology, tail curvature at 4 dpf” value is on record as “continued to show the curvature of the tails”. In assay [1], the “γ-secretase cleavage of APP in vitro at low concentrations” value is “did not inhibit” and the “Aβ production in vitro, dose response” value is listed as “dose-dependent reduction of Aβ production”. Besides, the “Aβ production in vitro” value in assay [1] (10 and 100 μM) is recorded as “complete depletion of Aβ production”. For the same molecule, in assay [1] (read-out: concentration inhibiting levels of Aβ to 50% in vitro), the IC50 came to 1000 nM.
In the case of `C[C@H](NC(=O)Cc1cc(F)cc(F)c1)C(=O)N[C@H]1N=C(c2ccccc2)c2ccccc2N(C)C1=O` [cpd E, (S,S)-2-[2-(3,5-Difluorophenyl)-acetylamino]-N-(1-methyl-2-oxo-5-phenyl-2,3-dihydro-1H-benzo [e] [1,4]diazepin-3-yl)-propionamide], in the assay with zebrafish embryos, the “embryo morphology, tail curvature” value was “lack of dramatic phenotypic alteration” and the “embryo morphology, tail curvature at 4 dpf” value is “minor effect on embryo morphology”. For the same molecule, the “embryo morphology, tail curvature” value in the assay on zebrafish embryos (listed as Cpd E) is “did not show any curvature”. In assay [1], the “γ-secretase cleavage of APP in vitro at low concentrations” value was “selectively inhibited the γ-secretase cleavage of APP” and the “Aβ production in vitro, dose response” value is “dose-dependent reduction of Aβ production”. In addition, in assay [1] (100 nM (0.1 μM)), the “Aβ generation from APP C100 in vitro” value is “could almost deplete any Aβ generation; also recorded: completely blocked Aβ generation”. Besides, in assay [1] (read-out: IC50 for Aβ generation (levels of Aβ reduced to 50%) in vitro), the IC50 was 1 nM.
